Experiments:
Assay type in all cases: cell-based, murine
TLR4 = assay: LPS-induced TLR4 protein expression in RAW 264.7 cells (Western blot); conditions: KMU-470 0.5 and 1 μM 30 min, LPS 6 h
Method: Figure 4 Inhibitory effect of KMU-470 on LPS-induced TLR4 and MyD88 protein expression in RAW 264.7 cells. (A,B) Cells were pre-treated with 0.5 and 1 μM of KMU-470 for 30 min prior to LPS treatment. Then, total protein was isolated after 6 h exposure to LPS. The protein expression level of TLR4 and MyD88 were assessed using Western blot analysis. (C,D) The relative optical densities of TLR4 and MyD88 bands were analyzed by the Image-J program. *** p < 0.001.
RAW 264.7 cells were pre-treated with KMU-470 (0.5–1 μM/mL) for 24 h and stimulated with LPS (50 ng/mL) for 6 h. After stimulation, total cells were harvested, washed with PBS buffer, and then the total protein was extracted with a RIPA buffer (0.1 mM sodium orthovanadate, 137 mM NaCl, 15 mM EGTA, 0.1% Triton X-100, 25 mM MOPS, 15 mM MgCl2, 100 μM phenylmethylsulfonyl fluoride, and 20 μM leupeptin, adjusted to pH 7.2). The cell culture media supernatants were precipitated using TCA (trichloroacetic acid, protocol by Luis Sanchez 2001). A BCA protein assay kit (Thermo Scientific, Wilmington, USA) was used for the determination of the protein concentration. […] Immunoreactive proteins were detected using the ELC Western blot detection system kit (Millipore). Signal intensity was measured using the Chemi Image documentation system (Fusion Fx7, VILBER LOUTMAT). Protein expression levels were quantified using the Image J program.

pro-IL-1β = assay: LPS-induced pro-IL-1β protein expression in RAW 264.7 cells (Western blot); conditions: KMU-470 0.1, 0.5, 1 μM 30 min, LPS 50 ng/mL 6 h
Method: Figure 2 Effect of PIM inhibition on lipopolysaccharide (LPS)-mediated inflammatory response in RAW 264.7 cells. (A) RAW 264.7 cells transfected with negative siRNA or PIM-1 siRNA for 72 h and then treated with LPS (50 ng/mL) for 6 h. Whole cell lysates were isolated and used to measure the protein expression levels of PIM-1, pro-IL-1β, p-Bad, and β-actin by Western blot analysis. […] Total RNA was isolated, and used to measure the mRNA expression levels of IL-1b and β-actin by RT-PCR analysis. *** p < 0.001, ** p < 0.01.
Figure 6 Inhibitory effect of KMU-470 on LPS-induced up-regulation of pro-inflammatory cytokines and activation of NLRP3 inflammasome in RAW 264.7 cells. (A–C) Cells were treated with KMU-470 for 30 min and stimulated with LPS 50 ng/mL for 6 h. The levels of IL-1β, TNF-α, and IL-6 were determined using real time PCR. *** p < 0.001, *p < 0.05. (D) Cells were pre-treated with 0.1, 0.5, and 1 μM of KMU-470 for 30 min and treated with LPS 50 ng/mL for 6 h, respectively. […]
RAW 264.7 cells were pre-treated with KMU-470 (0.5–1 μM/mL) for 24 h and stimulated with LPS (50 ng/mL) for 6 h. […] Immunoreactive proteins were detected using the ELC Western blot detection system kit (Millipore). Signal intensity was measured using the Chemi Image documentation system (Fusion Fx7, VILBER LOUTMAT). Protein expression levels were quantified using the Image J program. […]

TNF-α = assay: LPS-induced TNF-α mRNA in RAW 264.7 cells (real time PCR); conditions: KMU-470 30 min, LPS 50 ng/mL 6 h
Method: (§1) Figure 6 Inhibitory effect of KMU-470 on LPS-induced up-regulation of pro-inflammatory cytokines and activation of NLRP3 inflammasome in RAW 264.7 cells. (A–C) Cells were treated with KMU-470 for 30 min and stimulated with LPS 50 ng/mL for 6 h. The levels of IL-1β, TNF-α, and IL-6 were determined using real time PCR. *** p < 0.001, *p < 0.05. (D) Cells were pre-treated with 0.1, 0.5, and 1 μM of KMU-470 for 30 min and treated with LPS 50 ng/mL for 6 h, respectively. Whole cell lysates were isolated and used to measure the protein expression levels of pro-IL-1β and β-actin by Western blot analysis. (E) Cells were pre-treated with 0.1, 0.5, and 1 μM of KMU-470 for 30 min and treated with LPS 50 ng/mL for 6 h, respectively. Whole cell lysates were isolated and used to measure the protein expression levels of […], ASC, pro-caspase-1, pro-IL-1β, and β-actin by Western blot analysis.
(§2) Total RNA was isolated using TriZol reagent (Life Technologies; Gaithersburg, MD, USA) according to the manufacturer’s protocol. Total RNA absorbance was quantified by using Nanodrop 1000 (Thermo Fisher Scientific, Waltham, MA, USA). […] Real time quantitative PCR was performed by using the SYBR green premix (Roche Diagnostics, Mannheim, Germany) on the LightCycler 480 PCR (system Roche Diagnostics, Mannheim, Germany). […]

IL-6 = assay: LPS-induced IL-6 mRNA in RAW 264.7 cells (real time PCR); conditions: KMU-470 30 min, LPS 50 ng/mL 6 h
Method: as §1, §2

SMILES: CN(C)CCNc1cncc(-c2ccc3c(c2)/C(=C/c2cnc[nH]2)C(=O)N3)n1 [KMU-470, (Z)-3-((1H-Imidazol-5-yl)methylene)-5-(6-((2-(dimethylamino)ethyl)amino)pyrazin-2-yl)indolin-2-one]
- Up-regulation of TLR4 protein by LPS (TLR4): suppressed
- LPS-induced up-regulation of IL-1β protein (pro-IL-1β; RAW 264.7 cells (Figure 6D)): reduced
- Expression of pro-IL-1β protein compared with LPS alone group (pro-IL-1β; RAW 264.7 cells (Figure 6E)): marked decrease
- LPS-induced up-regulation of TNF-α (mRNA) (TNF-α): significantly decreased
- LPS-induced up-regulation of IL-6 (mRNA) (IL-6): significantly decreased

Reference: article PMC7403980, “Anti-Inflammatory Effects of the Novel PIM Kinase Inhibitor KMU-470 in RAW 264.7 Cells through the TLR4-NF-κB-NLRP3 Pathway” (International Journal of Molecular Sciences, 2020)
